Measurements reported in patent US20260048151A1, “HEMICYANINE PUSH-PULL DYES BASED ON CHROMENE ELECTRON DONORS” (UNIVERSITY OF CONNECTICUT, priority 2022, published 2026).

What was measured:
[1] = Voltage sensitivity on voltage-clamped hemispherical lipid bilayer; conditions: for Ex (excitation wavelength of optimal voltage sensitivity) / Voltage Sensitivity ΔF/F per 100 mV: long pass emission filter; for Voltage Sensitivity ΔF/F per 100 mV: magnitude at optimal Ex/Em
Source text: It is known that optimal voltage sensitivity can be obtained by measuring the compounds on a voltage-clamped hemispherical bilayer apparatus. The apparatus can include a patch-clamp amplifier, such as a HEKA EPC-8 patch-clamp amplifier. Measurements can be obtained by stepping the membrane potential between two different potentials for a set time lapse. such as, for example, −110 and −60 mV every 10 ms.
Testing VSDs in a voltage-clamped hemispherical lipid bilayer allows one to determine the sensitivity of the VSDs as a function of excitation wavelength. This system has a Teflon tube filled with KCl and is immersed in a KCl solution in a cuvette. A lipid bubble is blown at the tip of the tube and spontaneously forms a bilayer membrane. The VSD to be tested is introduced on one side of the bilayer, usually in the cuvette. Electrodes in the tube and in the cuvette allow the imposition of a voltage across the membrane and a tungsten lamp coupled to a monochromator allows excitation wavelength dependence of the fluorescence response to voltage steps to be determined. This screening approach has allows for the comparison of the efficacy of newly developed VSDs in a well-controlled, consistent manner and to also determine excitation and emission wavelengths with optimal.
Voltage sensitivities of 2a as a function of voltage is shown in FIG. 3A for excitation at 730 nm and 570 nm. The voltage response is linear over the range of −100 mV to +100 mV; 570 nm is slightly to the blue of the isosbestic point, accounting for the weak but inverted sensitivity at this wavelength. […] This opposite polarity at the blue and red edges underlies the ability to use electrochromic hemicyanine dyes for dual-wavelength ratio imaging. The precise location of the isosbestic point in the excitation wavelength depends on the emission filter used because the emission spectrum is also voltage dependent for hemicyanine dyes.
The magnitude and wavelengths of the optimal voltage sensitivities of all the VSDs on the voltage-clamped hemispherical bilayer are included in the third column of Table 1.

[2] = Absorption and emission spectra, fluorescence quantum efficiency in EtOH, PBS and lipid vesicles (MLV); type: physicochemical; conditions: for Fluorescence quantum efficiency (FQE): in lipid vesicle suspensions; for emission maximum: membrane-bound (MLV)
Protocol: FIGS. 2A-2C are plots showing absorption and emission spectra of 2a, in comparison with ElectroFluor630, in various solvent environments: MLV, EtOH, and PBS. Multilamellar lipid vesicle suspension (MLV) was prepared by sonicating soybean phosphatidylcholine in PBS buffer (2 mg/mL) to mimic the cell membrane environment. The emission spectra in ethanol and PBS buffer were scaled 10 and 20 times respectively relative to the emission spectra in MLV. Excitation wavelength is 580 nm for emission spectra.
All chemicals were purchased from commercial sources (Sigma Aldrich, Acros, TCI America, Combi-Blocks, and others) and used without further purification. Column chromatography was generally performed on COMBIFLASH NextGen 300 using normal phase silica columns except that for some final dye products amine silica columns were used. Thin layer chromatography (TLC) was carried out on EM 60 F-254 plastic TLC plates. NMR spectra were recorded on Varian 400 MHz, 500 MHz, and 800 MHz instruments at the UConn Heath Structural Biology Facility. All spectra are referenced internally to TMS or residual solvent signals. Electrospray ionization (ESI) high-resolution mass spectra (HRMS) were obtained on a QStar Elite (AB Sciex) at the Department of Chemistry, University of Connecticut. UV/Vis absorption spectra were recorded on a UV-Visible spectrophotometer (Shimadzu, UV-1601PC) and fluorescence emission spectra on a Horiba Fluorolog spectrofluorometer (Horiba, Inc., Edison, NJ). Fluorescence quantum yield for dyes was determined by a relative method using Rhodamine 6G (excited at 480 nm, FQY=0.95 in EtOH) or cresyl violet (excited at 580 nm, FQY=0.54 in MeOH) as the references.
Absorbance and the fluorescence properties of the new VSDs were determined. The absorption and emission spectra for 2a, together with ElectroFluor630, in aqueous buffer (PBS), ethanol, and when intercalated in the membrane of lipid vesicles are shown in FIGS. 2A-C. […] This is particularly advantageous for fluorescence imaging because background fluorescence from unbound dye is negligible. Another characteristic of the hemicyanine VSDs that is preserved by 2a in FIGS. 2A-C is the large Stokes shift between the excitation and emission maxima. 125 nm for the membrane-bound dye. This is also a benefit for fluorescence detection and imaging, as the fluorescence can be readily filtered from scattered exciting light. The broad wavelength window afforded by the spectra is also an important benefit for the design of experiments with multiple fluorescent sensors. For comparative purposes, certain VSDs are shown below.
As expected, the spectra are largely insensitive to alkyl substitution. Table 1 also includes data for ElectroFluor630 (aka Di-4-ANEQ (F) PTEA) for comparison. The absorption maxima of 2a in ethanol (EtOH), aqueous buffer (PBS) and when bound to lipid membranes (multilamellar vesicles, MLV) are red shifted by 77 nm, 63 nm and 63 nm, respectively, relative to ElectroFluor630, which is isostructural to 2a. […] The absorption and emission spectra of 2a, 2b, and 2c are all shifted to the red by 50-65 nm relative to ElectroFluor630.

AtT20 cells = experiment: Voltage sensitivity in patch clamped tissue culture cells; type: cell-based
Source text: We were motivated by separate requests from a company, Tara Biosystems, and the academic lab of Dr. Jack Rogers (see letters of support), for cardiac applications requiring recording over the course of longer than a full day. This will require dyes with both improved persistence (i.e. long washout times) and photostability (to allow for recording over long periods without appreciable bleaching or phototoxicity). We addressed these requirements via synthesis of a fluorinated chromophore (to improve photostability) with lengthened alkyl chains (to improve the strength of membrane binding and therefore persistence); we are calling it ElectroFluor630p™ (630 for the optimal excitation wavelength and p for persistent). ElectroFluor630p™ is similar to ElectroFluor630™, except that the butyl chains have been replaced with pentyl chains. We characterized this new VSD on both our voltage clamped hemispherical bilayer and on AtT20 cells. […] In addition, we will follow-up on these measurements extending the excitation wavelengths to include 660 nm. This is expected to further increase sensitivity and is an important wavelength for commercialization since the Photoswitch Bolt system, which is being sold for high-throughput cardiac safety screening studies (see letter from Stephen Smith), uses 660 nm laser excitation.
Turning to Preliminary Results for Aim 2. we have already described our characterization of a new VSD in patch clamped tissue culture cells in FIG. 2.

[3] = Optimal excitation wavelengths of existing VSDs; type: physicochemical
in-vivo pig heart = conditions: translational in-vivo pig model (Lee, et al., 2019); cited from earlier work
[4] = Voltage sensitivity on voltage-clamped hemispherical lipid bilayer; conditions: 560 nm excitation
[5] = in MLV (multilamellar lipid vesicles)

Row | absorption maximum ([2]; in EtOH) [nm] | absorption maximum [2, 5] [nm] | absorption maximum ([2]; in PBS) [nm] | Fluorescence quantum efficiency (FQE) [2] | emission maximum [2] [nm] | Compound | Ex (excitation wavelength of optimal voltage sensitivity) [1] [nm] | Voltage Sensitivity ΔF/F per 100 mV [1] [%] | further results
1 | 580 | 540 | 552 | 0.25 | 677 | CCCCCN(CCCCC)c1ccc2c(c1)OCC(/C=C/c1cc[n+](CCCS(=O)(=O)[O-])cc1F)=C2 [1b] | 640 | 8 | 
2 | 700 | 611 | 628 | 0.10 | 736 | CCCCCN(CCCCC)c1ccc2c(c1)OCC(/C=C/c1c(F)c[n+](CCC[N+](CC)(CC)CC)c3ccccc13)=C2.[Br-].[Br-] [2b] | 720 | 10 | 
3 | 579 | 534 | 515 | 0.22 | 675 | CCCCCCN(CCCCCC)c1ccc2c(c1)OCC(/C=C/c1cc[n+](CCCS(=O)(=O)[O-])cc1F)=C2 [1c] | 630 | 11 | 
4 | 701 | 614 | 633 | 0.10 | 739 | CCCCN(CCCC)c1ccc2c(c1)OCC(/C=C/c1c(F)c[n+](CCC[N+](CC)(CC)CC)c3ccccc13)=C2.[Br-].[Br-] [2a] | 730 | 17 | ΔF/F/100 mV ([1]; 730 nm excitation): −17%; excitation wavelength of voltage sensitivity higher than any previous VSDs ([1]; at 730 nm): ~100 nm; voltage response of fluorescence ([1]; range −100 mV to +100 mV, excitation 730 nm and 570 nm): linear; red shift of absorption maximum relative to ElectroFluor630 ([2]; bound to lipid membranes (MLV)): 63 nm; red shift of absorption maximum relative to ElectroFluor630 ([2]; in aqueous buffer (PBS)): 63 nm; red shift of absorption maximum relative to ElectroFluor630 ([2]; in ethanol (EtOH)): 77 nm; fluorescence enhancement upon binding to lipid membranes ([2]; lipid membranes vs unbound dye): over 100 fold; fluorescence quantum efficiency despite bathochromic shift ([2]; membrane bound, vs ElectroFluor630): not diminished; Stokes shift between excitation and emission maxima ([2]; membrane-bound dye): 125 nm; ΔF/F/100 mV [4]: +3%
5 | 577 | 540 | 546 | 0.31 | 673 | CCCCN(CCCC)c1ccc2c(c1)OCC(/C=C/c1cc[n+](CCCS(=O)(=O)[O-])cc1F)=C2 [1a] | 660 | 12 | shift to the red of results relative to the FIG. 1 dye [1]: ~30 nm

The next lines start with the compound.

Row | Compound | absorption maximum ([2]; in EtOH) [nm] | absorption maximum [2, 5] [nm] | absorption maximum ([2]; in PBS) [nm] | Fluorescence quantum efficiency (FQE) [2] | emission maximum [2] [nm] | Ex (excitation wavelength of optimal voltage sensitivity) [1] [nm] | Voltage Sensitivity ΔF/F per 100 mV [1] [%] | further results
6 | CCCCCN(CCCCC)c1ccc2cc(/C=C/c3c(F)c[n+](CCC[N+](CC)(CC)CC)c4ccccc34)ccc2c1.[Br-].[Br-] [ElectroFluor630p, Di-5-ANEQ(F)PTEA] |  |  |  |  |  |  |  | ΔF/F/100 mV (AtT20 cells; blue-edge excitation): +5.2%; ΔR/R/100 mV (ratio blue/red excitation) (AtT20 cells; ratio measurement): 29.3%; ΔF/F/100 mV (AtT20 cells; red-edge excitation): −19.4%
7 | CCCCN(CCCC)c1ccc2cc(/C=C/C=C/c3cc[n+](CCC[N+](C)(C)C)c4ccccc34)ccc2c1.[Br-].[Br-] [di-4-ANBDQPQ] |  |  |  |  |  |  |  | optimal excitation [3]: 630 nm
8 | CCCCN(CCCC)c1ccc2cc(/C=C/c3c(F)c[n+](CCC[N+](CC)(CC)CC)c4ccccc34)ccc2c1.[Br-].[Br-] [ElectroFluor630, Di-4-ANEQ (F) PTEA, reference compound] | 618 | 547 | 565 | 0.10 | 686 | 645 | 12 | optimal dual excitation, lower wavelength [3]: 470 nm; optimal dual excitation, upper wavelength [3]: 630 nm; phototoxicity (in-vivo pig heart): minimal phototoxicity
9 | CCCCN(CCCC)c1ccc2cc(/C=C/c3cc[n+](CCCS(=O)(=O)[O-])cc3)ccc2c1 [Di-4-ANEPPS, reference compound] | 496 | 464 | 447 | 0.30 | 617 | 550 | 10 | 
